Reference: ChEMBL document CHEMBL1152179, “Semi-synthesis and biological activity of gamma-lactones analogs of camptothecin” (Bioorg Med Chem Lett, 2008)
Activity calls are given as the source filed them. The calls are words filed in the database; no cut-off is given here.

Assays:
Type in all cases: functional, cell-based
A549 [1] = experiment: Cytotoxicity against human A549 cells upto 100 uM by SRB method
HT-29 [2] = experiment: Cytotoxicity against human HT-29 cells upto 100 uM by SRB method
HT-29 [3] = experiment: Cytotoxicity against human HT-29 cells by SRB method
A549 [4] = experiment: Cytotoxicity against human A549 cells by SRB method

## CC[C@@]1(C(=O)NCCN2CCOCC2)OC(=O)c2c1cc1n(c2=O)Cc2c-1nc1ccccc1c2C1CCCCC1
A549 [1]
  Activity: inactive
HT-29 [2]
  Activity: inactive

## CC[C@@]1(C(=O)NCCO)OC(=O)c2c1cc1n(c2=O)Cc2cc3ccccc3nc2-1
A549 [1]
  Activity: inactive
HT-29 [2]
  Activity: inactive

## CC[C@@]1(C(=O)NCCN2CCOCC2)OC(=O)c2c1cc1n(c2=O)Cc2c-1nc1ccccc1c2C(=O)C1CC1
A549 [1]
  Activity: inactive
HT-29 [2]
  Activity: inactive

## CCCCNC(=O)[C@]1(CC)OC(=O)c2c1cc1n(c2=O)Cc2cc3ccccc3nc2-1
HT-29 [3]
  IC50: 68.3 µM
A549 [4]
  IC50: 70.1 µM

## CC[C@@]1(C(=O)NCCN2CCSCC2)OC(=O)c2c1cc1n(c2=O)Cc2cc3ccccc3nc2-1
A549 [1]
  Activity: inactive
HT-29 [2]
  Activity: inactive

## CC[C@@]1(O)C(=O)OCc2c1cc1n(c2=O)Cc2cc3c(CN(C)C)c(O)ccc3nc2-1 [TOPOTECAN]
HT-29 [3]
  IC50: 0.375 µM
A549 [4]
  IC50: 0.48 µM

## CC[C@@]1(C(=O)NCCN2CCOCC2)OC(=O)c2c1cc1n(c2=O)Cc2cc3ccccc3nc2-1
HT-29 [3]
  IC50: 39.9 µM
A549 [4]
  IC50: 25.6 µM

## CCc1c2c(nc3ccc(O)cc13)-c1cc3c(c(=O)n1C2)COC(=O)[C@]3(O)CC [7-ETHYL-10-HYDROXYCAMPTOTHECIN]
HT-29 [3]
  IC50: 0.12 µM
A549 [4]
  IC50: 0.08 µM

## CCCCNC(=O)[C@]1(CC)OC(=O)c2c1cc1n(c2=O)Cc2c-1nc1ccccc1c2CC
A549 [1]
  Activity: inactive
HT-29 [2]
  Activity: inactive

## CCc1c2c(nc3ccc(OC)cc13)-c1cc3c(c(=O)n1C2)C(=O)O[C@@]3(CC)C(=O)NCCN1CCOCC1
A549 [1]
  Activity: inactive
HT-29 [2]
  Activity: inactive

## CC[C@@]1(C(=O)NCCN2CCOCC2)OC(=O)c2c1cc1n(c2=O)Cc2c-1nc1ccc(OC)cc1c2C1CCCC1
HT-29 [3]
  IC50: 62.9 µM
A549 [4]
  IC50: 96.5 µM

## CC[C@@]1(C(=O)NCCCO)OC(=O)c2c1cc1n(c2=O)Cc2cc3ccccc3nc2-1
A549 [1]
  Activity: inactive
HT-29 [2]
  Activity: inactive

## CC[C@@]1(C(=O)NCCN2CCCC2)OC(=O)c2c1cc1n(c2=O)Cc2cc3ccccc3nc2-1
HT-29 [3]
  IC50: 31.6 µM
A549 [4]
  IC50: 94.3 µM

## CCN(CC)CCNC(=O)[C@]1(CC)OC(=O)c2c1cc1n(c2=O)Cc2cc3ccccc3nc2-1
HT-29 [3]
  IC50: 31.6 µM
A549 [4]
  IC50: 65.3 µM

## CC[C@@]1(C(=O)NCCN2CCCCC2)OC(=O)c2c1cc1n(c2=O)Cc2cc3ccccc3nc2-1
HT-29 [3]
  IC50: 31.6 µM
A549 [4]
  IC50: 74.9 µM

## CC[C@@]1(C(=O)NCCN2CCOCC2)OC(=O)c2c1cc1n(c2=O)Cc2c-1nc1ccccc1c2C1CCCC1
A549 [1]
  Activity: inactive
HT-29 [2]
  Activity: inactive

## CC[C@@]1(C(=O)NCCN2CCN(C)CC2)OC(=O)c2c1cc1n(c2=O)Cc2cc3ccccc3nc2-1
HT-29 [3]
  IC50: 7.25 µM
A549 [4]
  IC50: 53.1 µM

## CC[C@@]1(C(N)=O)OC(=O)c2c1cc1n(c2=O)Cc2cc3ccccc3nc2-1
A549 [1]
  Activity: inactive
HT-29 [2]
  Activity: inactive
